According to patent publication US5958770A, “Glycoalkaloids” (priority 1990, dated 1999):
Read-outs that look alike come from different tables or passages of the source.

Assays:
[1] = tested on: human cells, ovarian cancer cells, melanoma cells, cells infected with viruses, normal fibroblasts, normal bone marrow cells, leukemic cells and normal …; assay: Inhibition of the action of the mixture of solasodine glycosides by free sugars and sugars bound to bovine serum albumin; format: cell-based; conditions: free sugar and bound to bovine serum albumin
HeLa cells [2] = assay: cells
Method: (§1) The inhibition of cell replication by steroid alkaloids is determined by the inhibition of the incorporation of ^3 H thymidine into DNA. Using this technique, it should be possible to monitor any preferential inhibition of uptake of ^3 H thymidine by cancer cells.
(§2) Cells were maintained as monolayers in RPM1-1640 tissue culture media (Grant Island Biological Co) buffered with N-2-hydroxy-ethylpiperazine-N-2-ethanesulphonic acid pH 7.5 and supplemented with 10% heat inactivated fetal calf serum (FCS): (i) a human ovarian cancer cell line (C180-135), (ii) HeLa cells, (iii) human fibroblasts, and (iv) as a cell suspension of lymphoblastoid cells (EBV transformed lymphocytes). Monolayers were trypsinized to form a cell suspension. […] Cell concentration was adjusted to 2×10^5 cells/ml, and 2×10^4 cells were added in replicates of 10 to the wells (1×10^5 /ml well) of HA microtitre plates (Millipore Corp., USA). The cells were preincubated at 37.5° C. for 7 hours prior to the addition of 50 μl of the cytotoxic drug followed by the addition of 50 μl 5 uCi/ml of ^3 H thymidine, in the same tissue culture media 21 hours later. Incubation was continued for a total of 24 hours, which includes the pre-incubation time.
(§3) Appropriate DMSO cytotoxicity studies were also conducted. Solasodine glycosides were supplied as a mixture (BEC), and as separate components, solamargine, solasonine, a mixture of di- and mono-glycosides and the aglycone solasodine. All cytotoxic drugs were further diluted with HIFCS/TCM before testing. 5×10^4 ovarian cancer cells (200 μl/chamber of a chamber of microscope slide (Lab Tek Miles Scientific) were used. Controls received 50 μl HIFCS/TCM and experimental chambers 50 μl of solasodine glycosides (BEC) 1.5-3.8 μM/L after 7 hrs preincubation, and incubated for a further 3 hrs. Similarly, the cells were treated with the aglycone solasodine 19.4-96.8 μM/L. The cells were fixed and examined by the Papanicolaou method.

[3] = tested on: lymphoblastoid cells (EBV transformed lymphocytes); assay: cells
Method: as §1, §2, §3

human fibroblasts = assay: cells
Method: as §1, §2, §3

in vitro [4] = conditions: human, pwm stimulated lymphocytes
Method: (§5) This was cultured for 48 hours and pulsed with tritiated thymidine for a further 24 hours. In the inhibition studies, the cell concentration was 8×10^5 /ml.
(§6) All cells were harvested by vacuum filtration by washing in 250 μl of each of phosphate buffered saline, 5% trichloroacetic acid, 1.0M NaCl and 95% ethanol and subjected to β-scintillatian counting. Similarly, peripheral human blood lymphocytes were isolated and cultured 2×10^5 lymphocytes in CO2 1640TCM 10% HIFCS. Lymphocytes were stimulated with 20 μg/ml PHA, Con A or PWM, and cultured for 48 hrs followed by a 24 hr pulse. […] Cell concentrations were 8×10^4 /well total volume 250 μl. The dpm of the experimental replicates were expressed as a percentage of the mean value of the controls, and the mean value of the experimental replicates calculated.

in vitro [5] = conditions: human, con a stimulated lymphocytes
Method: as §5, §6

in vitro [6] = conditions: human, unstimulated lymphocytes
Method: as §5, §6

[7] = tested on: ovarian cancer cells, HeLa cells, lymphoblastoid cells, fibroblasts; assay: Cytotoxicity / inhibition of tritiated thymidine uptake, cell types taken together; conditions: for inhibition of tritiated thymidine uptake / cytotoxicity (words): 11.3 μM/L, various cell types
Method: as §1, §2, §3

[8] = tested on: unstimulated and stimulated lymphocytes; conditions: for cytotoxicity (words): unstimulated and stimulated lymphocytes
Method: as §5, §6

ovarian cancer cells [9] = assay: Inhibition of tritiated thymidine uptake, ovarian cancer cells
Method: as §1, §2, §3

in vitro [10] = conditions: human, pha stimulated lymphocytes
Method: as §5, §6

[11] = tested on: Con A stimulated lymphocytes; assay: DMG cytotoxicity with carbohydrates, Con A stimulated lymphocytes; format: cell-based, human
Method: (§4) A mixture of solasodine glycosides (BEC), of which the active compound is solamargine and from which the aglycone solasodine is derived was prepared for use in cytotoxicity assays as determined by the uptake of tritiated thymidine. Inhibition studies were carried out with lactose, lactosyl-albumin, galactose or rhamnose (Sigma Chemical Co., USA). All experimental replicates were related to their own controls. Total volume of replicates was 250 μl (carbohydrates added in 50 μl tissue culture media+10% fetal calf serum), and the cell concentrations were 8×10^4 /ml.

Sarcoma 180 = assay: Survival of mice with Sarcoma 180, with and without rhamnose; format: in vivo
Method: Herston White mice with a body weight of approximately 30 g and aged 8-10 weeks served as recipients. Twelve mice were randomly chosen for each experimental group.
Sarcoma 180 tumour cells (5×10^5) were inoculated intraperitoneally into mice. This caused a mortality of 100% with a median survival time of 20 days in the control groups. A standard mixture of glycoalkaloids (BEC) was dissolved in dimethylsulfoxide at a concentration of 0.5 g BEC/100 ml dimethylsulfoxide. Similar solutions were made up but also contained 0.3125, 0.625 and 0.9375 g of rhamnose. These solutions were administered intraperitoneally in concentrations of 8 mg/kg animal weight for BEC (FIG. 9) without (-.tangle-solidup.-), and with 5 mg (-.quadrature.-), 10 mg (-.cndot.-) and 15 mg (-Δ-) rhamnose/kg animal weight. The first dose was given 0.5 hours after administration of the Sarcoma 180 tumour cells. The remaining three doses were given at daily intervals. Dimethylsulfoxide and rhamnose had no effect on Sarcoma 180 activity in the absence of BEC (-.smallcircle.-).

unstimulated lymphocytes [12] = assay: DMG cytotoxicity with carbohydrates, unstimulated lymphocytes; format: cell-based, human
Method: as §4

fibroblasts = assay: Solamargine cytotoxicity in presence and absence of carbohydrates, fibroblasts; format: cell-based, human; conditions: fibroblasts
Method: as §4

ovarian cancer cells [13] = assay: Solamargine cytotoxicity in presence and absence of carbohydrates, ovarian cancer cells; format: cell-based, human; conditions: ovarian cancer cells
Method: as §4

HeLa cells [14] = assay: Solamargine cytotoxicity in presence and absence of carbohydrates, HeLa cells; format: cell-based, human; conditions: HeLa cells
Method: as §4

lymphoblastoid cells = assay: Solamargine cytotoxicity in presence and absence of carbohydrates, lymphoblastoid cells; format: cell-based; conditions: lymphoblastoid cells
Method: as §4

[15] = 100 mg solasodine/kg; cited from earlier work
ovarian cancer cells [16] = assay: Morphological examination of ovarian cancer cells (Papanicolaou); format: cell-based, human; conditions: 19.4-96.8 μM/L; FIG. 2A
Method: Appropriate DMSO cytotoxicity studies were also conducted.
A human ovarian cancer cell line (C180-135) was grown as mono layers and trypsinized to form a cell suspension. The cells were adjusted to a concentration of 1×10^5 /ml (viability ≥95%) and 200 μl placed in each of the eight chambers of microscope chamber slides (Lab Tek, Miles Scientific). After 21 hours preincubation at 37.5° C., 50 μl of supplemented tissue culture media were added to the control chambers. To the other chambers were added 50 μl of solasodine glycosides (BEC) to give final concentrations of 3, 4.8, 6.7, 7.7, 9.6, 11.1 and 15.3 μM/L. Similarly, to a separate chamber slide was added the aglycone solasodine (19.4-96.8 μM/L). The slides were incubated at 37.5° C. for a further 3 hours, and the cells fixed in 95% V/V alcohol and stained by the Papanicolaou method. Two other chamber slides were prepared in a similar manner, but the solasodine glycosides and the aglycone were added at a final concentration of 0.77, 1.5, 2.3, 3.1 and 3.8 μM/L after 7 hours preincubation, and they incubated for a further 17 hours.

unstimulated lymphocytes [17] = assay: Inhibition of tritiated thymidine uptake, unstimulated lymphocytes; conditions: much higher concentrations; unstimulated lymphocytes (FIG. 8e)
Method: as §5, §6

## CC(=O)N[C@H]1C(O)O[C@H](CO)[C@@H](O)[C@@H]1O (stereo partly shown) [NAc glucosamine]
[1]
  inhibitory effect on the action of the mixture of solasodine glycosides: inhibitory effects

## CC(=O)N[C@@H]1[C@@H](O)[C@H](O)[C@@H](CO)O[C@@H]1O [NAc glucose]
[1]
  inhibitory effect on the action of the mixture of solasodine glycosides: inhibitory effects

## CC(=O)N[C@@H]1C(O)O[C@H](CO)[C@@H](O)[C@@H]1O (stereo partly shown) [NAc mannosamine]
[1]
  inhibitory effect on the action of the mixture of solasodine glycosides: inhibitory effects

## CC(=O)NC1C(O)OC(CO)C(O)C1O (stereo not shown) [NAc mannose]
[1]
  inhibitory effect on the action of the mixture of solasodine glycosides: inhibitory effects

## C[C@@H]1CC[C@@]2(NC1)O[C@H]1C[C@H]3[C@@H]4CC=C5C[C@@H](O[C@@H]6O[C@H](CO)[C@H](O)[C@H](O[C@@H]7O[C@H](CO)[C@@H](O)[C@H](O)[C@H]7O)[C@H]6O[C@@H]6O[C@@H](C)[C@H](O)[C@@H](O)[C@H]6O)CC[C@]5(C)[C@H]4CC[C@]3(C)[C@H]1[C@@H]2C [Solasonine, solasonine]
HeLa cells [2]; Homo sapiens, HeLa, read-out: Percentage Cell Survival
  viability at 11.3 µM: 105 ± 9.5%
[3]; Homo sapiens, Lymphoblastoid cell, read-out: Percentage Cell Survival
  viability at 11.3 µM: 117 ± 8%
Human fibroblasts; Homo sapiens, Fibroblast, read-out: Percentage Cell Survival
  viability at 11.3 µM: 96 ± 8.3%
In vitro [4]
  viability at 11.3 µM: 110 ± 3.8%
In vitro [5]
  viability at 11.3 µM: 97 ± 7%
In vitro [6]
  viability at 11.3 µM: 97 ± 11.8%
[7]
  inhibition of tritiated thymidine uptake / cytotoxicity (words): ineffective
[7]; listed as solasonine
  inhibition of tritiated thymidine uptake / cytotoxicity (words): not cytotoxic
[8]
  cytotoxicity (words): ineffective
[8]; listed as solasonine
  cytotoxicity (words): absence of any effect
Ovarian cancer cells [9]; Homo sapiens, read-out: Percentage Cell Survival
  viability at 11.3 µM: 93 ± 8%
In vitro [10]
  viability at 11.3 µM: 103 ± 5.7%

## O=C[C@H](O)[C@@H](O)[C@H](O)[C@H](O)CO [glucose]
[11]
  inhibition of the action of DMG: inhibit the action of DMG
[1]
  inhibitory effect on the action of the mixture of solasodine glycosides: inhibitory effects
Sarcoma 180
  effect on S180 activity in the absence of BEC: no effects
Unstimulated lymphocytes [12]
  inhibition of the action of DMG: do not inhibit DMG

## OC[C@H]1O[C@@H](O[C@H]2[C@H](O)[C@@H](O)C(O)O[C@@H]2CO)[C@H](O)[C@@H](O)[C@H]1O (stereo partly shown) [lactose, reference compound]
fibroblasts
  inhibition of solamargine cytotoxicity: completely inhibited
Ovarian cancer cells [13]
  inhibition of solamargine cytotoxicity: Partial inhibition
[1]
  inhibitory effect on the action of the mixture of solasodine glycosides: inhibitory effects
HeLa cells [14]
  inhibition of solamargine cytotoxicity: not inhibited
Lymphoblastoid cells
  inhibition of solamargine cytotoxicity: partial inhibition

## O=C[C@@H](O)[C@@H](O)[C@H](O)[C@H](O)CO [mannose]
[1]
  inhibitory effect on the action of the mixture of solasodine glycosides: inhibitory effects

## C[C@H]1CC[C@@H]2[C@@H](C)[C@H]3[C@H](C[C@H]4[C@@H]5CC=C6C[C@@H](O[C@@H]7O[C@H](CO)[C@H](O)[C@H](O[C@@H]8O[C@H](CO)[C@@H](O)[C@H](O)[C@H]8O)[C@H]7O[C@@H]7O[C@@H](C)[C@H](O)[C@@H](O)[C@H]7O)CC[C@]6(C)[C@H]5CC[C@]34C)N2C1 [solanine]
[7]
  lysosomotropic/mitochondrial inhibition: lack of lysosomotropic/mitochondrial inhibition

## C[C@@H]1CC[C@@]2(NC1)O[C@H]1C[C@H]3[C@@H]4CC=C5C[C@@H](O)CC[C@]5(C)[C@H]4CC[C@]3(C)[C@H]1[C@@H]2C [solasodine]
[15]
  deaths in mice: does not produce any deaths
Ovarian cancer cells [16]
  morphological effect on ovarian cancer cells: did not have any observable effect
Unstimulated lymphocytes [17]
  cytotoxic effect of aglycone: substantial effect on unstimulated lymphocytes
Sarcoma 180; aglycone, 100 mg/kg
  effectiveness against S180: not effective
[7]
  lysosomotropic/mitochondrial inhibition: lack of lysosomotropic/mitochondrial inhibition
[7]; equivalent concentrations of solamargine (FIG. 6)
  cytotoxic effect of aglycone: does not exert a cytotoxic effect
[8]; equivalent concentrations of DMG
  cytotoxic effect of aglycone: does not exert a cytotoxic effect
Ovarian cancer cells [9]; higher concentrations (FIG. 7)
  cytotoxic effect of aglycone: increase in cytotoxicity

## CC[C@]1(O)C[C@@H]2CN(CCc3c([nH]c4ccccc34)[C@@](C(=O)OC)(c3cc4c(cc3OC)N(C)[C@H]3[C@@](O)(C(=O)OC)[C@H](OC(C)=O)[C@]5(CC)C=CCN6CC[C@]43[C@@H]65)C2)C1 [vinblastine, reference compound]
HeLa cells [2]; HeLa / OvCa
  TR50 (thymidine ratio relative to ovarian cancer cells): 0.28
HeLa cells [2]; Homo sapiens, HeLa, read-out: LD50 (dose to inhibit 50% tritiated thymidine uptake)
  IC50: 2.7 µM
[3]; LCL / OvCa
  TR50 (thymidine ratio relative to ovarian cancer cells): 0.27
[3]; human gammaherpesvirus 4, LCL, read-out: LD50 (dose to inhibit 50% tritiated thymidine uptake)
  IC50: 2.6 µM
Human fibroblasts; FB / OvCa
  TR50 (thymidine ratio relative to ovarian cancer cells): 0.2
Human fibroblasts; Homo sapiens, Fibroblast, read-out: LD50 (dose to inhibit 50% tritiated thymidine uptake)
  IC50: 1.9 µM
Human fibroblasts; fibroblasts/lymphoblastoid cells
  TR50 for fibroblasts/lymphoblastoid cells: 0.73
In vitro [4]
  CC50: 10.8 µM
In vitro [5]
  CC50: 7.8 µM
In vitro [6]
  CC50: 11 µM
[7]; normal versus cancer cells
  cytotoxicity to normal cells relative to cancer cells: equally or more cytotoxic to normal cells relative to cancer cells
Ovarian cancer cells [9]; Homo sapiens, read-out: LD50 (dose to inhibit 50% tritiated thymidine uptake)
  IC50: 9.5 µM
In vitro [10]
  CC50: 19.2 µM

## galactose [reference compound]
fibroblasts
  inhibition of solamargine cytotoxicity: completely inhibited
Ovarian cancer cells [13]
  inhibition of solamargine cytotoxicity: partial inhibition
[1]
  inhibitory effect on the action of the mixture of solasodine glycosides: inhibitory effects
HeLa cells [14]
  inhibition of solamargine cytotoxicity: not inhibited
Lymphoblastoid cells
  inhibition of solamargine cytotoxicity: partial inhibition

## rhamnose
[11]
  inhibition of the action of DMG: inhibit the action of DMG
fibroblasts
  inhibition of solamargine cytotoxicity: inhibition by rhamnose is also demonstrable
Sarcoma 180
  effect on S180 activity in the absence of BEC: no effects
Sarcoma 180; mice with S180
  inhibition of the efficacy of BEC: inhibits the efficacy of BEC
Unstimulated lymphocytes [12]
  inhibition of the action of DMG: do not inhibit DMG
